Measured values published in patent publication EP0271271B1, “Pharmaceutical preparations” (BEECHAM GROUP PLC, priority 1986, dated 1988).

System: conscious male spontaneously hypertensive rats (SHR)
Experiment: Systolic blood pressure by inflatable tail cuff in conscious spontaneously hypertensive rats
Assay type: in vivo
Method: Potentiation of the anti-hypertensive response to Compounds of formula (I) has been observed in conscious male spontaneously hypertensive rats (SHR) when the compounds were combined with the angiotensin I converting enzyme inhibitor enalapril. For the purpose of the experiment 36 rats were allotted at random to 4 groups, each of 9 rats. Systolic blood pressure (SBP) was measured non-invasively using an inflatable tail cuff technique as described in the aforementioned European Patent references. The protocol of the experiment was as follows: [table] […] The results were as shown in Table I. The protocol of the experiment for pinacidil was as follows: [table] […]

SMILES: CC1(C)Oc2ccc(C#N)cc2[C@@H](N2CCCC2=O)[C@@H]1O (relative stereo) [Compound 1, 6-cyano-3,4-dihydro-2,2-dimethyl-trans-4-(2-oxo-1-pyrrolidinyl)-2H-benzo[b]pyran-3-ol]
- % change (± sem) of SBP (Group 3: vehicle at 0 h, Compound 1 0.3 mg/kg po at 0.75 h, time 0.75 h (time of compound dosing), initial SBP 262±3 mmHg): -2±2%
- % change (± sem) of SBP (Group 3: vehicle at 0 h, Compound 1 0.3 mg/kg po at 0.75 h, time 1.75 h, initial SBP 262±3 mmHg): -43±2%
- % change (± sem) of SBP (Group 3: vehicle at 0 h, Compound 1 0.3 mg/kg po at 0.75 h, time 2.75 h, initial SBP 262±3 mmHg): -21±2%
- % change (± sem) of SBP (Group 3: vehicle at 0 h, Compound 1 0.3 mg/kg po at 0.75 h, time 4.75 h, initial SBP 262±3 mmHg): -15±3%

SMILES: CC1(C)Oc2ccncc2[C@@H](N2CCCC2=O)[C@@H]1O (relative stereo) [Compound 2, trans-3,4-dihydro-2,2-dimethyl-4-(2-oxopyrrolidin-1-yl)-2H-pyrano[3,2-c]pyridin-3-ol]
- SBP change (quantity not headed in table; as % change of Table I) (Compound 2 0.6 mg/kg po alone, time 0.75, time-0 value 244±6): 1±2
- SBP change (quantity not headed in table; as % change of Table I) (Compound 2 0.6 mg/kg po alone, time 1.75, time-0 value 244±6): -20±2
- SBP change (quantity not headed in table; as % change of Table I) (Compound 2 0.6 mg/kg po alone, time 2.75, time-0 value 244±6): -12±3
- SBP change (quantity not headed in table; as % change of Table I) (Compound 2 0.6 mg/kg po alone, time 4.75, time-0 value 244±6): -11±2

SMILES: CN1CCCN(C2c3cc(C#N)ccc3OC(C)(C)C2O)C1=O (stereo not drawn) [Compound 3, 6-cyano-3,4-dihydro-2,2-dimethyl-trans-4-(N-3-methyltetrahydro-2-pyrimidone)-2H-benzo[b]pyran-3-ol]
- SBP change (quantity not headed in table; as % change of Table I) (Compound 3 2.0 mg/kg po alone, time 0.75, time-0 value 253±6): 0±3
- SBP change (quantity not headed in table; as % change of Table I) (Compound 3 2.0 mg/kg po alone, time 1.75, time-0 value 253±6): -20±3
- SBP change (quantity not headed in table; as % change of Table I) (Compound 3 2.0 mg/kg po alone, time 2.75, time-0 value 253±6): -22±3
- SBP change (quantity not headed in table; as % change of Table I) (Compound 3 2.0 mg/kg po alone, time 4.75, time-0 value 253±6): -21±3

SMILES: CC(=O)NC1c2cc(C#N)ccc2OC(C)(C)C1O (stereo not drawn) [Compound 4, trans-4-N-acetylamino-6-cyano-3,4-dihydro-2,2-dimethyl-2H-benzo[b]pyran-3-ol]
- SBP change (quantity not headed in table; as % change of Table I) (Compound 4 0.15 mg/kg po alone, time 0.75, time-0 value 281±5): 0±2
- SBP change (quantity not headed in table; as % change of Table I) (Compound 4 0.15 mg/kg po alone, time 1.75, time-0 value 281±5): -26±4
- SBP change (quantity not headed in table; as % change of Table I) (Compound 4 0.15 mg/kg po alone, time 2.75, time-0 value 281±5): -23±4
- SBP change (quantity not headed in table; as % change of Table I) (Compound 4 0.15 mg/kg po alone, time 4.75, time-0 value 281±5): -13±2

SMILES: CCOC(=O)[C@H](CCc1ccccc1)N[C@@H](C)C(=O)N1CCC[C@H]1C(=O)O [Enalapril]
- SBP change (quantity not headed in table; as % change of Table I) (Compound 2 experiment: Compound (A) 3 mg/kg po alone, time 0.75, time-0 value 247±3): -9±1
- SBP change (quantity not headed in table; as % change of Table I) (Compound 2 experiment: Compound (A) 3 mg/kg po alone, time 1.75, time-0 value 247±3): -22±2
- SBP change (quantity not headed in table; as % change of Table I) (Compound 2 experiment: Compound (A) 3 mg/kg po alone, time 2.75, time-0 value 247±3): -14±3
- SBP change (quantity not headed in table; as % change of Table I) (Compound 2 experiment: Compound (A) 3 mg/kg po alone, time 4.75, time-0 value 247±3): -16±2
- SBP change (quantity not headed in table; as % change of Table I) (Compound 3 experiment: Compound (A) 3 mg/kg po alone, time 0.75, time-0 value 254±4): -8±2
- SBP change (quantity not headed in table; as % change of Table I) (Compound 3 experiment: Compound (A) 3 mg/kg po alone, time 1.75, time-0 value 254±4): -10±3
- SBP change (quantity not headed in table; as % change of Table I) (Compound 3 experiment: Compound (A) 3 mg/kg po alone, time 2.75, time-0 value 254±4): -12±4
- SBP change (quantity not headed in table; as % change of Table I) (Compound 3 experiment: Compound (A) 3 mg/kg po alone, time 4.75, time-0 value 254±4): -21±3
- SBP change (quantity not headed in table; as % change of Table I) (Compound 4 experiment: Compound (A) 3 mg/kg po alone, time 0.75, time-0 value 280±5): -4±2
- SBP change (quantity not headed in table; as % change of Table I) (Compound 4 experiment: Compound (A) 3 mg/kg po alone, time 1.75, time-0 value 280±5): -9±2
- SBP change (quantity not headed in table; as % change of Table I) (Compound 4 experiment: Compound (A) 3 mg/kg po alone, time 2.75, time-0 value 280±5): -12±3
- SBP change (quantity not headed in table; as % change of Table I) (Compound 4 experiment: Compound (A) 3 mg/kg po alone, time 4.75, time-0 value 280±5): -14±2
- % change (± sem) of SBP (Group 2: enalapril 3 mg/kg po at 0 h, vehicle at 0.75 h, time 0.75 h, initial SBP 257±3 mmHg): -8±2%
- % change (± sem) of SBP (Group 2: enalapril 3 mg/kg po at 0 h, vehicle at 0.75 h, time 1.75 h, initial SBP 257±3 mmHg): -11±4%
- % change (± sem) of SBP (Group 2: enalapril 3 mg/kg po at 0 h, vehicle at 0.75 h, time 2.75 h, initial SBP 257±3 mmHg): -15±2%
- % change (± sem) of SBP (Group 2: enalapril 3 mg/kg po at 0 h, vehicle at 0.75 h, time 4.75 h, initial SBP 257±3 mmHg, n=7): -17±2 (n=7) %
- % change (± s.e.m.) of SBP (Pinacidil experiment, Group 2: enalapril 3 mg/kg po at 0 h, vehicle at 0.75 h, time 0.75 h, initial SBP 274±6 mmHg): -4±1%
- % change (± s.e.m.) of SBP (Pinacidil experiment, Group 2: enalapril 3 mg/kg po at 0 h, vehicle at 0.75 h, time 1.75 h, initial SBP 274±6 mmHg): -14±3%
- % change (± s.e.m.) of SBP (Pinacidil experiment, Group 2: enalapril 3 mg/kg po at 0 h, vehicle at 0.75 h, time 2.75 h, initial SBP 274±6 mmHg): -16±3%
- % change (± s.e.m.) of SBP (Pinacidil experiment, Group 2: enalapril 3 mg/kg po at 0 h, vehicle at 0.75 h, time 4.75 h, initial SBP 274±6 mmHg, n=8): -17±3(n=8) %

SMILES: CC(N/C(=N\C#N)Nc1ccncc1)C(C)(C)C (stereo not shown) [Pinacidil, Nʺ-Cyano-N-4-pyridyl-Nʹ-1,2,2-trimethylpropylguanidine]
- % change (± s.e.m.) of SBP (Group 3: vehicle at 0 h, pinacidil 1 mg/kg po at 0.75 h, time 0.75 h (time of pinacidil dosing), initial SBP 269±4 mmHg): +4±1%
- % change (± s.e.m.) of SBP (Group 3: vehicle at 0 h, pinacidil 1 mg/kg po at 0.75 h, time 1.75 h, initial SBP 269±4 mmHg, n=8): -33±5(n=8) %
- % change (± s.e.m.) of SBP (Group 3: vehicle at 0 h, pinacidil 1 mg/kg po at 0.75 h, time 2.75 h, initial SBP 269±4 mmHg): -19±3%
- % change (± s.e.m.) of SBP (Group 3: vehicle at 0 h, pinacidil 1 mg/kg po at 0.75 h, time 4.75 h, initial SBP 269±4 mmHg): -9±3%
